According to PubChem BioAssay (NCI):
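GI50 = concentration required for 50% inhibition of growth. TGI denotes the concentration required for complete inhibition of growth.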

How the values were obtained:
Assay in all cases: NCI anticancer screen, dose series, 384-well format
[1] = tested on: 786-0 renal
[2] = tested on: EKVX NSCLC
[3] = tested on: HCC-2998 colon
[4] = tested on: HS 578T breast
[5] = tested on: MALME-3M melanoma
[6] = tested on: MDA-MB-435 melanoma
[7] = tested on: OVCAR-3 ovarian
[8] = tested on: RPMI-8226 leukemia
[9] = tested on: RXF 393 renal
[10] = tested on: SF-295 CNS
[11] = tested on: SF-539 CNS
[12] = tested on: SK-OV-3 ovarian
[13] = tested on: SN12C renal

C[C@@H](O)[C@H](NC(=O)N[C@@H](CC(N)=O)c1nc([C@@H](N)CO)no1)C(=O)O
GI50 [1]: > 100 µM
TGI [1]: > 100 µM
GI50 [2]: > 100 µM
TGI [2]: > 100 µM
GI50 [3]: > 100 µM
TGI [3]: > 100 µM
GI50 [4]: > 100 µM
TGI [4]: > 100 µM
GI50 [5]: > 100 µM
TGI [5]: > 100 µM
GI50 [6]: > 100 µM
TGI [6]: > 100 µM
GI50 [7]: > 100 µM
TGI [7]: > 100 µM
GI50 [8]: > 100 µM
TGI [8]: > 100 µM
GI50 [9]: > 100 µM
TGI [9]: > 100 µM
GI50 [10]: > 100 µM
TGI [10]: > 100 µM
GI50 [11]: > 100 µM
TGI [11]: > 100 µM
GI50 [12]: > 100 µM
TGI [12]: > 100 µM
GI50 [13]: > 100 µM
TGI [13]: > 100 µM
